{"source": "ChEMBL document CHEMBL5505993", "about": "“Identification of a ferritinophagy inducer via sinomenine modification for the treatment of colorectal cancer” (Eur J Med Chem, 2024)", "key": {"[1]": {"tested_on": "HCT-116", "experiment": "Induction of […] ROS production in human HCT-116 cells incubated for 12 hrs by DCFH-DA probe based flow cytometry", "type": "functional, cell-based"}, "[2]": {"tested_on": "HCT-116", "experiment": "Antitumor activity against human HCT-116 cells xenografted in BALB/c mouse assessed as reduction in tumor growth at 60 mg/kg,ip administrated daily for 14 days", "type": "functional, organism-based", "conditions": "time 14.0 day"}, "[3]": {"tested_on": "HCT-116", "experiment": "Antitumor activity against human HCT-116 cells xenografted in BALB/c mouse assessed as increase in 4-HNE level in tumor at 30 mg/kg,ip administrated daily for 14 days by ELISA", "type": "functional, organism-based", "conditions": "time 14.0 day"}, "[4]": {"tested_on": "HCT-116", "experiment": "Induction of autophagy in human HCT-116 cells assessed as increase in 4-HNE level at 20 uM incubated for 12 hrs in presence of autophagy inhibitor, Bafilomycin A1 by ELISA", "type": "functional, cell-based"}, "[5]": {"tested_on": "HCT-116", "experiment": "Cytotoxicity against human HCT-116 cells assessed as inhibition of cell growth incubated for 12 hrs by CCK-8 assay", "type": "functional, cell-based", "conditions": "HCT-116, 12 h"}, "[6]": {"tested_on": "HCT-116", "experiment": "Induction of autophagy in human HCT-116 cells transfected with mRFP-GFP-LC3B assessed as formation of autolysosomes by measuring reduction in GFP to mRFP fluorescence ratio at 5 to 20 uM incubated for 12 hrs by Lyso tracker red staining based confocal fluorescence microscopic analysis", "type": "functional, cell-based", "conditions": "dose 5-20 µM"}, "[7]": {"tested_on": "HCT-116", "experiment": "Antitumor activity against human HCT-116 cells xenografted in BALB/c mouse assessed as reduction in tumor growth at 30 mg/kg,ip administrated daily for 14 days", "type": "functional, organism-based", "conditions": "time 14.0 day"}, "[8]": {"tested_on": "HCT-116", "experiment": "Antitumor activity against human HCT-116 cells xenografted in BALB/c mouse assessed as presence of pyknotic nucleus at 60 mg/kg,ip administrated daily for 14 days by hematoxylin and eosin staining based microscopic analysis", "type": "functional, organism-based", "conditions": "time 14.0 day"}, "[9]": {"tested_on": "HCT-116", "experiment": "Antitumor activity against human HCT-116 cells xenografted in BALB/c mouse assessed as increase in 4-HNE level in tumor at 60 mg/kg,ip administrated daily for 14 days by ELISA", "type": "functional, organism-based", "conditions": "time 14.0 day"}, "[10]": {"tested_on": "HCT-116", "experiment": "Antiproliferative activity against human HCT-116 cells assessed as reduction in number of EdU-positive cell at 5 to 20 uM incubated for 9 hrs by Edu staining based analysis", "type": "functional", "conditions": "dose 5-20 µM"}, "[11]": {"tested_on": "HCT-116", "experiment": "Induction of ferroptosis in human HCT-116 cells assessed as increase in ferrous ion level in lysosomes at 20 uM incubated for 12 hrs by Lyso tracker red staining based confocal fluorescence microscopic analysis", "type": "functional, cell-based"}, "[12]": {"experiment": "Toxicity in BALB/c mouse xenografted with human HCT-116 cells assessed as histopathological changes in spleen at 30 mg/kg,ip administrated daily for 14 days by hematoxylin and eosin staining based microscopic analysis", "type": "organism-based", "conditions": "in vivo, 336 h, time 14 day"}, "[13]": {"experiment": "Toxicity in BALB/c mouse xenografted with human HCT-116 cells assessed as histopathological changes in lung at 60 mg/kg,ip administrated daily for 14 days by hematoxylin and eosin staining based microscopic analysis", "type": "organism-based", "conditions": "in vivo, 336 h, time 14 day"}, "[14]": {"tested_on": "HCT-116", "experiment": "Induction of ferroptosis in human HCT-116 cells assessed as effect on GSH level at 5 to 20 uM incubated for 12 hrs", "type": "functional, cell-based", "conditions": "dose 5-20 µM"}, "[15]": {"tested_on": "HCT-116", "experiment": "Induction of ferroptosis in human HCT-116 cells assessed as increase in intracellular lipid ROS accumulation at 5 to 20 uM incubated for 12 hrs by C11 BODIPY probe based fluorescence microscopic analysis", "type": "functional, cell-based", "conditions": "dose 5-20 µM"}, "[16]": {"tested_on": "HCT-116", "experiment": "Induction of ferroptosis in human HCT-116 cells assessed as effect on p53 protein expression at 5 to 20 uM incubated for 12 hrs by Western blotting analysis", "type": "functional, cell-based", "conditions": "dose 5-20 µM"}, "[17]": {"tested_on": "HCT-116", "experiment": "Cytotoxicity against human HCT-116 cells assessed as inhibition of cell growth incubated for 48 hrs by CCK-8 assay", "type": "functional, cell-based", "conditions": "HCT-116, 48 h"}, "[18]": {"experiment": "Toxicity in BALB/c mouse xenografted with human HCT-116 cells assessed as histopathological changes in heart at 30 mg/kg,ip administrated daily for 14 days by hematoxylin and eosin staining based microscopic analysis", "type": "organism-based", "conditions": "in vivo, 336 h, time 14 day"}, "[19]": {"tested_on": "HCT-116", "experiment": "Antitumor activity against human HCT-116 cells xenografted in BALB/c mouse assessed as increase in FTH1 expression at 30 mg/kg,ip administrated daily for 14 days by immunohistochemistry", "type": "functional, organism-based", "conditions": "time 14.0 day"}, "[20]": {"tested_on": "HCT-116", "experiment": "Antitumor activity against human HCT-116 cells xenografted in BALB/c mouse assessed as increase in FTH1 expression at 60 mg/kg,ip administrated daily for 14 days by immunohistochemistry", "type": "functional, organism-based", "conditions": "time 14.0 day"}, "[21]": {"tested_on": "HT-29", "experiment": "Cytotoxicity against human HT-29 cells assessed as inhibition of cell growth incubated for 48 hrs by CCK-8 assay", "type": "functional, cell-based", "conditions": "HT-29, 48 h"}, "[22]": {"tested_on": "HCT-116", "experiment": "Induction of ferroptosis in human HCT-116 cells assessed as increase in intracellular ferrous ion level incubated for 12 hrs by ferroOrange probe based confocal fluorescence microscopic analysis", "type": "functional, cell-based"}, "[23]": {"experiment": "Toxicity in BALB/c mouse xenografted with human HCT-116 cells assessed as histopathological changes in lung at 30 mg/kg,ip administrated daily for 14 days by hematoxylin and eosin staining based microscopic analysis", "type": "organism-based", "conditions": "in vivo, 336 h, time 14 day"}, "[24]": {"experiment": "Toxicity in BALB/c mouse xenografted with human HCT-116 cells assessed as histopathological changes in liver at 60 mg/kg,ip administrated daily for 14 days by hematoxylin and eosin staining based microscopic analysis", "type": "organism-based", "conditions": "in vivo, 336 h, time 14 day"}, "[25]": {"experiment": "Toxicity in BALB/c mouse xenografted with human HCT-116 cells assessed as histopathological changes in spleen at 60 mg/kg,ip administrated daily for 14 days by hematoxylin and eosin staining based microscopic analysis", "type": "organism-based", "conditions": "in vivo, 336 h, time 14 day"}, "[26]": {"tested_on": "HCT-116", "experiment": "Induction of ferroptosis in human HCT-116 cells assessed as effect on SLC7A11 protein expression at 5 to 20 uM incubated for 12 hrs by Western blotting analysis", "type": "functional, cell-based", "conditions": "dose 5-20 µM"}, "[27]": {"tested_on": "HCT-116", "experiment": "Induction of ferroptosis in human HCT-116 cells assessed as effect on GPX4 protein expression at 5 to 20 uM incubated for 12 hrs by Western blotting analysis", "type": "functional, cell-based", "conditions": "dose 5-20 µM"}, "[28]": {"tested_on": "HCT-116", "experiment": "Induction of ferroptosis in human HCT-116 cells assessed as increase in intracellular lipid ROS accumulation at 5 to 20 uM incubated for 12 hrs by C11 BODIPY probe based flow cytometry", "type": "functional, cell-based", "conditions": "dose 5-20 µM"}, "[29]": {"tested_on": "HCT-116", "experiment": "Induction of ferritin autophagy in human HCT-116 cells assessed as upregulation of ratio of LC3B-II to LC3B-I protein expression at 5 to 20 uM incubated for 12 hrs by Western blotting analysis", "type": "functional, cell-based", "conditions": "dose 5-20 µM"}, "[30]": {"tested_on": "HCT-116", "experiment": "Induction of ferritin autophagy in human HCT-116 cells assessed as upregulation of NCOA4 protein expression at 20 uM incubated for 12 hrs by immunoprecipitation assay", "type": "functional, cell-based"}, "[31]": {"tested_on": "HCT-116", "experiment": "Induction of autophagy in human HCT-116 cells assessed as increase in intracellular ferrous ion level at 20 uM incubated for 12 hrs by Lyso tracker green staining based confocal microscopic analysis", "type": "functional, cell-based"}, "[32]": {"tested_on": "HCT-116", "experiment": "Antitumor activity against human HCT-116 cells xenografted in BALB/c mouse assessed as reduction in tumor density at 30 mg/kg,ip administrated daily for 14 days by hematoxylin and eosin staining based microscopic analysis", "type": "functional, organism-based", "conditions": "time 14.0 day"}, "[33]": {"tested_on": "HCT-116", "experiment": "Cytotoxicity against human HCT-116 cells assessed as inhibition of cell growth incubated for 12 to 48 hrs by CCK-8 assay", "type": "functional, cell-based", "conditions": "time 12-48 hrs"}, "[34]": {"tested_on": "HCT-116", "experiment": "Induction of autophagy in human HCT-116 cells transfected with mRFP-GFP-LC3B assessed as formation of autophagosomes by measuring reduction in GFP to mRFP fluorescence ratio at 5 to 20 uM incubated for 12 hrs by Lyso tracker red staining based confocal fluorescence microscopic analysis", "type": "functional, cell-based", "conditions": "dose 5-20 µM"}}, "note": "Calls of active or inactive are those of the source. The rule behind the calls is not given here.", "data": [{"smiles": "C=C(Cl)C(=O)NCCCCCCCCCCCC(=O)Oc1c(OC)ccc2c1[C@@]13CCN(C)[C@@H](C2)[C@H]1C=C(OC)C(=O)C3", "values": [{"measurement": "Activity", "setting": "[1]", "result": "Active"}, {"measurement": "Activity", "setting": "[2]", "result": "Active"}, {"measurement": "Activity", "setting": "[3]", "result": "Active"}, {"measurement": "Activity", "setting": "[4]", "result": "inactive"}, {"measurement": "IC50", "setting": "[5]", "result": 15.1, "unit": "µM"}, {"measurement": "Activity", "setting": "[6]", "result": "Active"}, {"measurement": "Activity", "setting": "[7]", "result": "Active"}, {"measurement": "Activity", "setting": "[8]", "result": "Active"}, {"measurement": "Activity", "setting": "[9]", "result": "Active"}, {"measurement": "Activity", "setting": "[10]", "result": "Active"}, {"measurement": "Activity", "setting": "[11]", "result": "Active"}, {"measurement": "Activity", "setting": "[12]", "result": "Non-Toxic"}, {"measurement": "Activity", "setting": "[13]", "result": "Non-Toxic"}, {"measurement": "Activity", "setting": "[14]", "result": "inactive"}, {"measurement": "Activity", "setting": "[15]", "result": "Active"}, {"measurement": "Activity", "setting": "[16]", "result": "inactive"}, {"measurement": "IC50", "setting": "[17]", "result": 5.87, "unit": "µM"}, {"measurement": "Activity", "setting": "[18]", "result": "Non-Toxic"}, {"measurement": "Activity", "setting": "[19]", "result": "Active"}, {"measurement": "Activity", "setting": "[20]", "result": "Active"}, {"measurement": "IC50", "setting": "[21]", "result": 6.71, "unit": "µM"}, {"measurement": "Activity", "setting": "[22]", "result": "Dose-Dependent Effect"}, {"measurement": "Activity", "setting": "[23]", "result": "Non-Toxic"}, {"measurement": "Activity", "setting": "[24]", "result": "Non-Toxic"}, {"measurement": "Activity", "setting": "[25]", "result": "Non-Toxic"}, {"measurement": "Activity", "setting": "[26]", "result": "inactive"}, {"measurement": "Activity", "setting": "[27]", "result": "inactive"}, {"measurement": "Activity", "setting": "[28]", "result": "Active"}, {"measurement": "Activity", "setting": "[29]", "result": "Active"}, {"measurement": "Activity", "setting": "[30]", "result": "inactive"}, {"measurement": "Activity", "setting": "[31]", "result": "Active"}, {"measurement": "Activity", "setting": "[32]", "result": "Active"}, {"measurement": "Activity", "setting": "[33]", "result": "Dose-Dependent Effect"}, {"measurement": "Activity", "setting": "[34]", "result": "Active"}]}]}
